Measurements reported in US20120225862A1, “HETEROARYL BENZAMIDES, COMPOSITIONS AND METHODS OF USE” (AUCKLAND UNIVSERVICES LIMITED, priority 2009, published 2012).

Columns and labels:
[1] = target: T1, Plk3 (Homo sapiens, UniProt Q9H4B4); assay: In vitro kinase activity (Millipore KinaseProfiler): Plk3; assay type: biochemical; details: no head or unit printed
T1 construct: purchased Millipore (KinaseProfiler service)
Procedure: (§1) All cells were grown in DMEM+10% FCS. ACHN and ACHN shVHL were a kind gift from George V. Thomas (UCLA). HIF overexpressing clones were described previously. Transfection of RNA oligos were performed with DnarmaFECT Reagent 1 (Dharmcon), according to manufacturer's directions. ON-TARGETplus SMART pools against HIF-1β/ARNT were purchased from Dharmacon. Glut1 was detected with anti-GLUT1 antibody from NeoMarkers/LabVision/Fisher. Pyruvate/lactate levels and hexokinase activity were both measured by fluorometric assay (BioVision and Sigma-Aldrich, respectively). ATP levels were measured by bioluminescence assay (ATP Determination Kit from Molecular Probes/Invitrogen). In vitro kinase activities were performed by Millipore KinaseProfiler. Affi-Gel 10 (BioRad) activated affinity media was coupled to analogs to generate immobilized affinity linkers.
(§2) We next wanted to investigate the differential glucose uptake between RCCs with and without VHL treated with compound 47 that subsequently lead to the selective death of VHL-deficient cells. We first examined the message levels of the two main glucose transporters, GLUT1 and GLUT2 by quantitative real-time PCR. GLUT1 is an inducible, high-affinity glucose transporter, while GLUT2 is the glucose transporter responsible for basal glucose uptake. […] Cells deficient in VHL had very low levels of GLUT2 that could barely be detected (FIG. 3J). […]

[2] = target: T2, SAPK2a (Homo sapiens, UniProt Q16539); assay: In vitro kinase activity (Millipore KinaseProfiler): SAPK2a; assay type: biochemical; details: no head or unit printed
T2 construct: purchased Millipore (KinaseProfiler service)
T2 sequence (Q16539 whole entry): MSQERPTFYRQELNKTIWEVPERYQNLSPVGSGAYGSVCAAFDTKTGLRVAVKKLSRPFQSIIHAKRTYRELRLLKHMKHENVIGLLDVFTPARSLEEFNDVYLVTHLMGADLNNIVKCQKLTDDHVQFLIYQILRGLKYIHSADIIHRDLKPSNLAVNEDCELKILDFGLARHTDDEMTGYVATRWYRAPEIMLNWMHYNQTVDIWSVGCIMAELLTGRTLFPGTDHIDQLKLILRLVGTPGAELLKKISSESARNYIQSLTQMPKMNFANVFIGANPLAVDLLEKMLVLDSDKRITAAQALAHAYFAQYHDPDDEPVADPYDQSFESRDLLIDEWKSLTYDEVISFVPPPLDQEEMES
Procedure: as §1, §2

[3] = target: T3, FGFR1 (Homo sapiens, UniProt P11362); assay: In vitro kinase activity (Millipore KinaseProfiler): FGFR1; assay type: biochemical; details: no head or unit printed
T3 construct: purchased Millipore (KinaseProfiler service)
T3 sequence (P11362 22-822, species assumed): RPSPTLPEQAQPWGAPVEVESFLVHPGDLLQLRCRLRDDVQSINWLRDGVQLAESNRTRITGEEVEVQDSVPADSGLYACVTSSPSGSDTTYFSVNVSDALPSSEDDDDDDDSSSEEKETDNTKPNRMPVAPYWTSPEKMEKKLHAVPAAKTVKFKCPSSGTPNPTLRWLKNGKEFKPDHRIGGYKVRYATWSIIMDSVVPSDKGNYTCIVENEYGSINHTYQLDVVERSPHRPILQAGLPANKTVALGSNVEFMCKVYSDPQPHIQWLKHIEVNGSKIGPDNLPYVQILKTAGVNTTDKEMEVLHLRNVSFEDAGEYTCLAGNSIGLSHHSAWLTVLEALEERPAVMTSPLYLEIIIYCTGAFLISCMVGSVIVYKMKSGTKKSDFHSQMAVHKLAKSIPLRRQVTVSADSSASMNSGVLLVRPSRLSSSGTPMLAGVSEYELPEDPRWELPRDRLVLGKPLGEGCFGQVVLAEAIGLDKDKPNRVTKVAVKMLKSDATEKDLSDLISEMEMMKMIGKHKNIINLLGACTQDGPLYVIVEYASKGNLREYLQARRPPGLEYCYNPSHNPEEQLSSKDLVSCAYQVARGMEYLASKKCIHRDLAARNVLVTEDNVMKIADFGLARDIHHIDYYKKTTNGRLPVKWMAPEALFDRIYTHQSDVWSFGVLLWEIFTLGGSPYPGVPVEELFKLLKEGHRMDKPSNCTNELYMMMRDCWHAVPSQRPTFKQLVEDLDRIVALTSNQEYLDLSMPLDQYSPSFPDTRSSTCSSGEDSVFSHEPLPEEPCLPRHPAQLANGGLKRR
Procedure: as §1, §2

[4] = target: T4, Rsk1 (Homo sapiens, UniProt Q15418); assay: In vitro kinase activity (Millipore KinaseProfiler): Rsk1; assay type: biochemical; details: no head or unit printed
T4 construct: purchased Millipore (KinaseProfiler service)
Procedure: as §1, §2

[5] = target: T5, Tie2 (Homo sapiens, UniProt Q02763); assay: In vitro kinase activity (Millipore KinaseProfiler): Tie2; assay type: biochemical; details: no head or unit printed
T5 construct: purchased Millipore (KinaseProfiler service)
T5 sequence (Q02763 23-1124): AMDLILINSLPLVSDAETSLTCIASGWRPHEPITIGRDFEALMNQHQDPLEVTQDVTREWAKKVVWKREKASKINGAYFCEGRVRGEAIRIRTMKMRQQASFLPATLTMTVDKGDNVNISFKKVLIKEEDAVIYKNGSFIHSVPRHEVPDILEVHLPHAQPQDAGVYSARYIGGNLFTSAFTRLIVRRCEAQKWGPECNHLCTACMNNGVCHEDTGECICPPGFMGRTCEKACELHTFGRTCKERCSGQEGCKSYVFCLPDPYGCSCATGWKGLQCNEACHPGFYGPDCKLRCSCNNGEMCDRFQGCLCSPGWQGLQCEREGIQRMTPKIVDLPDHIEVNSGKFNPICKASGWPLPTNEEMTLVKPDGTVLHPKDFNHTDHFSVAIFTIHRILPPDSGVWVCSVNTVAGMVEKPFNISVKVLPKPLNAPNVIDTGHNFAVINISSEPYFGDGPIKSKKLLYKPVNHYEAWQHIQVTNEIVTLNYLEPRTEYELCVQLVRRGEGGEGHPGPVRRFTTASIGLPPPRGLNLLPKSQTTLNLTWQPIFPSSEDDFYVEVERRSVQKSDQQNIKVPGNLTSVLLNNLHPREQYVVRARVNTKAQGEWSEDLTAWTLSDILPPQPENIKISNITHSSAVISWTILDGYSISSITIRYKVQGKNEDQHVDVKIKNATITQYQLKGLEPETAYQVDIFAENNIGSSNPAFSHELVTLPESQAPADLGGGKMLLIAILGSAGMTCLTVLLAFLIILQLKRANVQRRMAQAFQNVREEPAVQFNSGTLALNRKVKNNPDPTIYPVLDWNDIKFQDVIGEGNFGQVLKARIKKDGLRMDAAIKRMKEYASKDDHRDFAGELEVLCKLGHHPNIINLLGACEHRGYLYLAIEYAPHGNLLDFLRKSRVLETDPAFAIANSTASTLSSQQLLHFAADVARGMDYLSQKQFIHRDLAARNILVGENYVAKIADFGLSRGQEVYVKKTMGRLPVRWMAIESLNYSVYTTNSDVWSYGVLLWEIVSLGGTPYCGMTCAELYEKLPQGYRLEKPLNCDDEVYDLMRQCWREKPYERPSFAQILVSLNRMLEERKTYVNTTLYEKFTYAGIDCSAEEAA
Procedure: as §1, §2

[6] = target: T6, PAK2 (Homo sapiens, UniProt Q13177); assay: In vitro kinase activity (Millipore KinaseProfiler): PAK2; assay type: biochemical; details: no head or unit printed
T6 construct: purchased Millipore (KinaseProfiler service)
T6 sequence (Q13177 whole entry, species assumed): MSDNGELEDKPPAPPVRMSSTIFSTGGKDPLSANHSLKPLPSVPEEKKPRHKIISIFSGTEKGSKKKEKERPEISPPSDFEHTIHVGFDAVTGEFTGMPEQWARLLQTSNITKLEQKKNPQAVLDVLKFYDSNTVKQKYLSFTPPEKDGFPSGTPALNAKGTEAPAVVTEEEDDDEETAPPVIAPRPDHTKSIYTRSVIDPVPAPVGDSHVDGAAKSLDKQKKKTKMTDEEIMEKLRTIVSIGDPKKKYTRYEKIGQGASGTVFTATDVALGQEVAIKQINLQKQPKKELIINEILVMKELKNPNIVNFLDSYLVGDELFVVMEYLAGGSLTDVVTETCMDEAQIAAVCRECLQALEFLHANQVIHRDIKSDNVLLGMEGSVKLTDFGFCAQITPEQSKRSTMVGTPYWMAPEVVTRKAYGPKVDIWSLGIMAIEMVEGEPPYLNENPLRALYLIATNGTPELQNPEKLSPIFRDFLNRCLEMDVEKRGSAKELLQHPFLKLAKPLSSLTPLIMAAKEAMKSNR
Procedure: as §1, §2

[7] = target: T7, MAPKAP-K2 (Homo sapiens, UniProt P49137); assay: In vitro kinase activity (Millipore KinaseProfiler): MAPKAP-K2; assay type: biochemical; details: no head or unit printed
T7 construct: purchased Millipore (KinaseProfiler service)
T7 sequence (P49137 whole entry, species assumed): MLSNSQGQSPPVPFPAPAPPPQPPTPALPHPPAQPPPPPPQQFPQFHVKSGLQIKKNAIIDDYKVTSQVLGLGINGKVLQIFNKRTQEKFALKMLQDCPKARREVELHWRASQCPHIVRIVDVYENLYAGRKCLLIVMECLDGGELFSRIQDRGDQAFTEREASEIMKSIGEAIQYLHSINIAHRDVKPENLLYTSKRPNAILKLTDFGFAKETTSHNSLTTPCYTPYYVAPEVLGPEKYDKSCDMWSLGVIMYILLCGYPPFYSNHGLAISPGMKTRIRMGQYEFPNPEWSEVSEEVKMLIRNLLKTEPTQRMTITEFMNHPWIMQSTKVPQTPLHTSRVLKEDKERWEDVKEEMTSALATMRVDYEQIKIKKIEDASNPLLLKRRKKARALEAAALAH
Procedure: as §1, §2

[8] = test system: RCC4; assay: Clonogenic survival, RCC4; assay type: cell-based, human
Procedure: Three hundred cells were plated into 60-mm tissue culture dishes in DMEM. The next day, cells were treated with vehicle or drug and were further incubated for an additional 10 days. […] The stain was removed and plates were washed in deionized water. Colonies were quantified. All conditions were measured in triplicate and all experiments were performed in triplicate.
For 2,3-bis[2-methoxy-4-nitro-5-sulfophenyl]-2H-tetrazolium-5-carboxanilide (XTT) assays, five thousand cells were plated in 96-well plates. The next day, vehicle (DMSO) or drug was added by serial dilution. […] Metabolism of XTT was quantified by measuring the absorbance at 450 nm. IC50s were calculated using linear interpolation. For clonogenic survival assays, three hundred cells were plated per 60 mm tissue culture dish. The cells were allowed to attach overnight and then treated with vehicle or drug for […]. […] All conditions were measured in triplicate and each experiment was done in duplicate or triplicate. To determine necrosis, cells were treated with drug for a given time point. Media and cells were collected, centrifugated, and resuspended in 0.4% trypan blue (Invitrogen). Live and dead cells were counted on a hematocytometer.

[9] = target: T8, cKit(D816H) (Homo sapiens, UniProt P10721, D816H); assay: In vitro kinase activity (Millipore KinaseProfiler): cKit(D816H); assay type: biochemical; details: no head or unit printed
T8 construct: purchased Millipore (KinaseProfiler service)
Procedure: as §1, §2

[10] = target: T9, c-RAF (Homo sapiens, UniProt P04049); assay: In vitro kinase activity (Millipore KinaseProfiler): c-RAF; assay type: biochemical; details: no head or unit printed
T9 construct: purchased Millipore (KinaseProfiler service)
Procedure: as §1, §2

[11] = test system: RCC4/VHL cell clones overexpressing HIF-2α; assay: Sensitivity of RCC4/VHL clones overexpressing HIF; assay type: cell-based, human; details: two HIF-overexpressing RCC4/VHL clones, FIG. 2G
Procedure: As the hypoxia-inducible factor family of transcription factors are the best-characterized VHL targets, we next examined whether toxicity was HIF-dependent. A non-degradable, constitutively active HIF was overexpressed in RCC4/VHL cells. Two individual HIF-overexpressing clones were tested for their sensitivity to compound 47. […] Furthermore, the sensitivity of RCCs that lack functional VHL to compound 47 is directly linked to the aberrant upregulation of HIF.

[12] = target: T10, CDK6/cyclinD3 (Homo sapiens, UniProt Q00534); assay: In vitro kinase activity (Millipore KinaseProfiler): CDK6/cyclinD3; assay type: biochemical; details: no head or unit printed
T10 construct: purchased Millipore (KinaseProfiler service)
T10 sequence (Q00534 whole entry, species assumed): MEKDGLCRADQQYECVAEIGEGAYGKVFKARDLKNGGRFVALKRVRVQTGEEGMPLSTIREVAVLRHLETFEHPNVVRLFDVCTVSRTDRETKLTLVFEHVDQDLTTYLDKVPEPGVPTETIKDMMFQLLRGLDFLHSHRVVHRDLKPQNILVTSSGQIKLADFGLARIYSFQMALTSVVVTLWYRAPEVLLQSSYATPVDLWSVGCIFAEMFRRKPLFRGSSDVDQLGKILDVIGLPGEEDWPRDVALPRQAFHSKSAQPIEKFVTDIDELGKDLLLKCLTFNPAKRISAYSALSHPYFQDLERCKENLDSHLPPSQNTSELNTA
T10 sequence (P30281 whole entry partner, species assumed): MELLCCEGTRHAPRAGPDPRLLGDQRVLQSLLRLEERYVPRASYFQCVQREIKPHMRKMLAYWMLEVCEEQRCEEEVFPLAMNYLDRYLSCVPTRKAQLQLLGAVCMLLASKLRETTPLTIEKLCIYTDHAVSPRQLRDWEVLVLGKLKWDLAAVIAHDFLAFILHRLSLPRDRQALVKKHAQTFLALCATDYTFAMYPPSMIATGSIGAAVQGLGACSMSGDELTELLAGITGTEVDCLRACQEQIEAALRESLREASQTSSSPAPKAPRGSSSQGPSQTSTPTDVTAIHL
Procedure: as §1, §2

T1 sequence (Q9H4B4 whole entry, species assumed): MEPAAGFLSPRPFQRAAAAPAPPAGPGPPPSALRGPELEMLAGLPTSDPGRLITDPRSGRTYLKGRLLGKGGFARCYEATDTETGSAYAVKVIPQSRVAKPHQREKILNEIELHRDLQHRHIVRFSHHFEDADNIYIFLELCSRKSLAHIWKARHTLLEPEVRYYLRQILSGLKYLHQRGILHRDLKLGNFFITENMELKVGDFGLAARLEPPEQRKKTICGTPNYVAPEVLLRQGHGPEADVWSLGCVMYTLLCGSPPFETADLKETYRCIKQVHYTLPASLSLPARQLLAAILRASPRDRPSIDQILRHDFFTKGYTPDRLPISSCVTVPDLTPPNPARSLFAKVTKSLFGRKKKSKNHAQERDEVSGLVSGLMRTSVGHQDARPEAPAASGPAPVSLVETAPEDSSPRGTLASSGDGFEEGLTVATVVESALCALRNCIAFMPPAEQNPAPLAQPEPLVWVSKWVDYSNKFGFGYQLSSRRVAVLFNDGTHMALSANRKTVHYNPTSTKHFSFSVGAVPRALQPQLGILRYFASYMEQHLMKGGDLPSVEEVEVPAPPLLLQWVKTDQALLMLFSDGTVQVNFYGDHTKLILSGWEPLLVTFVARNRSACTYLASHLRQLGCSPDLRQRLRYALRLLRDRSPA

## CC(C)(C)c1ccc(S(=O)(=O)NCc2ccc(C(=O)Nc3cccnc3)cc2)cc1 [Example 38, 4-((4-tert-Butylphenylsulfonamido)methyl)-N-(pyridin-3-yl)benzamide]
[1]
  Plk3 kinase activity: 104
[2]
  SAPK2a kinase activity: 127
[3]
  FGFR1 kinase activity: 107%
[4]
  Rsk1 kinase activity: 120%
[5]
  Tie2 kinase activity: 111%
[6]
  PAK2 kinase activity: 97%
[7]
  MAPKAP-K2 kinase activity: 87
[8]; 5 μM, media replaced after indicated time, total 10 days
  reversibility of induced cell death: irreversible after three days
[8]; RCC4 (VHL-deficient), 5 μM, 10 days
  clonogenic survival of RCC4: specifically toxic to RCC4 cells
[8]; compound 5 μM, FIG. 2D
  RCC4 cells killed following treatment: Approximately 80%
[9]
  cKit(D816H) kinase activity: 99
[10]
  c-RAF kinase activity: 103
[11]
  effect of ectopic HIF expression in wild-type VHL cells on sensitivity: sensitized these cells
[12]
  CDK6/cyclinD3 kinase activity: 105
